Measured values reported in patent publication US8410112B2, “Compounds useful as inhibitors of ATR kinase” (Vertex Pharmaceuticals Incorporated, priority 2008, dated 2013).

Target: T1, full-length ATR (Homo sapiens, UniProt Q13535)
T1 construct: in the presence of 5 nM full-length ATR
Assay: ATR Inhibition Assay (radioactive-phosphate incorporation)
Format: biochemical
Conditions: Ki(app); 5 nM full-length ATR, 10 μM ATP, 800 μM target peptide, 25° C.
Summary of the method: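 Buffer was 50 mM Tris/HCl pH 7.5, 10 mM MgCl2, 1 mM DTT, with 5 nM enzyme, 10 μM [γ-33P]ATP and 800 μM target peptide at 25 °C. Compound was pre-incubated 10 min before ATP start, and the reaction was stopped after 24 h. Phosphocellulose filter capture; Ki(app) came from non-linear regression of background-corrected initial rates.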

T1 sequence (Q13535 whole entry): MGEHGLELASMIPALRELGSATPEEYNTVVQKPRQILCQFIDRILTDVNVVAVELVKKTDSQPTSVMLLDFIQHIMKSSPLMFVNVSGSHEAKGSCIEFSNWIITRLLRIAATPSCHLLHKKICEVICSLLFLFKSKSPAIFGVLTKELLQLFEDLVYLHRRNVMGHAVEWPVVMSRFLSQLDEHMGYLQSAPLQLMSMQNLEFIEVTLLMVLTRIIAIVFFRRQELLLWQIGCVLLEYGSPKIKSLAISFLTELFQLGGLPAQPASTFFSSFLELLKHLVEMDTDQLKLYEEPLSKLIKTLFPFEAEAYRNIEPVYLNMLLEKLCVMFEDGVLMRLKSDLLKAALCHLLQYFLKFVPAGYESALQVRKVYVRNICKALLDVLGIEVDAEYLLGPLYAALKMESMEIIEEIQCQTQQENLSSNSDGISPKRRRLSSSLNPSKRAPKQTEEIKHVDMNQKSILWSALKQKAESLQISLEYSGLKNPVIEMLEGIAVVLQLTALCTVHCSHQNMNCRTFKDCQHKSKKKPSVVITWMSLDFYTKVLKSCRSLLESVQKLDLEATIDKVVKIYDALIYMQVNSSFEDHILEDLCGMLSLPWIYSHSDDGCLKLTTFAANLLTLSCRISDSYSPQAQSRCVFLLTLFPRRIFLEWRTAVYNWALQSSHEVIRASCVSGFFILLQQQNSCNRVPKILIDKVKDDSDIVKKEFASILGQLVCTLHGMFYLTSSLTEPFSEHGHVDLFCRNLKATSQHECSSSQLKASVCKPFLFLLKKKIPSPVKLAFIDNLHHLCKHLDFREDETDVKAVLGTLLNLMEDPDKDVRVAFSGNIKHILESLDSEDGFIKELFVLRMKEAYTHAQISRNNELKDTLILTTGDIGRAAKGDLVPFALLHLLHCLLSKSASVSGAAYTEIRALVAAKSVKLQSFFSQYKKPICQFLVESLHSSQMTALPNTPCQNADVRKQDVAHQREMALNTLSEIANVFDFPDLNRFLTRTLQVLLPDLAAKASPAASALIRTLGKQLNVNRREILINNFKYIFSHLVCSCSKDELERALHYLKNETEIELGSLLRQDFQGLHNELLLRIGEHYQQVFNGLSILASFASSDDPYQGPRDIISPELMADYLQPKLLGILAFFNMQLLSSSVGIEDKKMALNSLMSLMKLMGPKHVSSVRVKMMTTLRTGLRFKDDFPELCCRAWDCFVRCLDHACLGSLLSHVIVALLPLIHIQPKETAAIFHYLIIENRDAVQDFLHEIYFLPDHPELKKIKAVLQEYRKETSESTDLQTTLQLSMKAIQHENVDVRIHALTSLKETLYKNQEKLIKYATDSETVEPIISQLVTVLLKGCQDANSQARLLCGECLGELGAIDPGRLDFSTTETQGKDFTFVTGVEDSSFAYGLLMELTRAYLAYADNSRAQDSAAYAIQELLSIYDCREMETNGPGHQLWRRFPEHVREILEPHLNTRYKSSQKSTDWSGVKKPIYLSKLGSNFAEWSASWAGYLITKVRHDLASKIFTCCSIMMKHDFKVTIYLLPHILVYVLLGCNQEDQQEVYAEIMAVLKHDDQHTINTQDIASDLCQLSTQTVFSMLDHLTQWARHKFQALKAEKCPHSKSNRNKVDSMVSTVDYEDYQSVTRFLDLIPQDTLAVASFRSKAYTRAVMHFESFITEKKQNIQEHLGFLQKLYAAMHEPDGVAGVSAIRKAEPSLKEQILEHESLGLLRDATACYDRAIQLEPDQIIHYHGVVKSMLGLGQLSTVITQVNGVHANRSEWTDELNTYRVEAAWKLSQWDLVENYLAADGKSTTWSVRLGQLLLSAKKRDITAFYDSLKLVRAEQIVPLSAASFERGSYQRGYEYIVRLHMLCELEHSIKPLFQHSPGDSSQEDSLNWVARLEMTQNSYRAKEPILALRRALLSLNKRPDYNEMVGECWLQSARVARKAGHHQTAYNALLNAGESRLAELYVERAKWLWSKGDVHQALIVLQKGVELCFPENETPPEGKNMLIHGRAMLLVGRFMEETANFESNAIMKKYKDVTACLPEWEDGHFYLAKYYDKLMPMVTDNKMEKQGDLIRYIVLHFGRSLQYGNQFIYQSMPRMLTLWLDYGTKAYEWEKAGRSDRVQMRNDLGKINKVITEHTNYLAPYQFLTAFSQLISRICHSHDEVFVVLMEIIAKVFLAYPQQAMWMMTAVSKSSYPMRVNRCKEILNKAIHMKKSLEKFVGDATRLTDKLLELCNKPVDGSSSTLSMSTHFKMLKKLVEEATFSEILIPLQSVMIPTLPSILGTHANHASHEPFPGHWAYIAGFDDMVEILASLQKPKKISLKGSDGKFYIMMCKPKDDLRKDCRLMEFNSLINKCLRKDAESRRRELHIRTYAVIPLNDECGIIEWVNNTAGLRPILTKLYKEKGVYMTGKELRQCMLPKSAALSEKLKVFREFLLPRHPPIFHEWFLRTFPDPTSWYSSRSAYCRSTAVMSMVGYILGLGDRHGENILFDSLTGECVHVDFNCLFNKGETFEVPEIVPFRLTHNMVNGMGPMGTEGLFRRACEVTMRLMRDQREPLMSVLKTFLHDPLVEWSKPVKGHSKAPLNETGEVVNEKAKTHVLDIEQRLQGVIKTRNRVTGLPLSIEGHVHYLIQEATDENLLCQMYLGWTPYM

SMILES	Ki
Cc1ccc2nc(-c3nc(N4CCC(N(C)C)CC4)cnc3N)[nH]c2c1 [Compound I-49, 5-(4-(dimethylamino)piperidin-1-yl)-3-(6-methyl-1H-benzo[d]imidazol-2-yl)pyrazin-2-amine]	1000 to 10000 nM
CC#CCOC(=O)N1CCN(c2cnc(N)c(-c3nc4ccccc4[nH]3)n2)CC1 [Compound I-272, but-2-ynyl 4-(5-amino-6-(1H-benzo[d]imidazol-2-yl)pyrazin-2-yl)piperazine-1-carboxylate]	1000 to 10000 nM
Nc1ncc(N2CCN(CCO)CC2)nc1-c1nnc(-c2ccccc2)o1 [Compound I-306, 2-[4-[5-amino-6-(5-phenyl-1,3,4-oxadiazol-2-yl)pyrazin-2-yl]piperazin-1-yl]ethanol]	1000 to 10000 nM
CCC(=O)N1CCN(c2cnc(N)c(-c3nnc(-c4ccc(CNC)cc4)o3)n2)CC1(C)C [Compound I-329, 1-[4-[5-Amino-6-[5-[4-(methylaminomethyl)phenyl]-1,3,4-oxadiazol-2-yl]pyrazin-2-yl]-2,2-dimethyl-piperazin-1-yl]propan-1-one]	1000 to 10000 nM
Nc1ncc(C2=CCN(C(=O)N3CCCCC3)CC2)nc1-c1nc2ccccc2[nH]1 [Compound I-249, (4-(5-amino-6-(1H-benzo[d]imidazol-2-yl)pyrazin-2-yl)-5,6-dihydropyridin-1(2H)-yl)(piperidin-1-yl)methanone]	100 to 1000 nM
CCS(=O)(=O)N1CCN(c2cnc(N)c(C(=O)Nc3ccccn3)n2)CC1 [Compound I-55, 3-amino-6-(4-(ethylsulfonyl)piperazin-1-yl)-N-(pyridin-2-yl)pyrazine-2-carboxamide]	100 to 1000 nM
CCS(=O)(=O)N1CC=C(c2cnc(N)c(-c3nc4ccccn4n3)n2)CC1 [Compound I-276, 3-([1,2,4]triazolo[1,5-a]pyridin-2-yl)-5-(1-(ethylsulfonyl)-1,2,3,6-tetrahydropyridin-4-yl)pyrazin-2-amine]	1000 to 10000 nM
CCOC(=O)N1CCN(c2cnc(N)c(-c3nnc(-c4ccccc4)o3)n2)CC1 [Compound I-232, ethyl 4-(5-amino-6-(5-phenyl-1,3,4-oxadiazol-2-yl)pyrazin-2-yl)piperazine-1-carboxylate]	100 to 1000 nM
Nc1ncc(N2CCN(C(=O)c3cccnc3)CC2)nc1-c1nnc(-c2ccccc2)o1 [Compound I-183, (4-(5-amino-6-(5-phenyl-1,3,4-oxadiazol-2-yl)pyrazin-2-yl)piperazin-1-yl)(pyridin-3-yl)methanone]	100 to 1000 nM
Nc1ncc(N2CCN(C(=O)C3CCC3)CC2)nc1-c1nc2ccccc2[nH]1 [Compound I-174, (4-(5-amino-6-(1H-benzo[d]imidazol-2-yl)pyrazin-2-yl)piperazin-1-yl)(cyclobutyl)methanone]	1000 to 10000 nM
CC(C)(C)C(=O)N1CCN(c2cnc(N)c(-c3nnc(-c4ccccc4)o3)n2)CC1 [Compound I-198, 1-(4-(5-amino-6-(5-phenyl-1,3,4-oxadiazol-2-yl)pyrazin-2-yl)piperazin-1-yl)-2,2-dimethylpropan-1-one]	100 to 1000 nM
Nc1ncc(N2CCN(C(=O)N3CCCC3)CC2)nc1C(=O)Nc1ccccn1 [Compound I-239, 3-amino-N-(pyridin-2-yl)-6-(4-(pyrrolidine-1-carbonyl)piperazin-1-yl)pyrazine-2-carboxamide]	1000 to 10000 nM
CCOC(=O)N1CC=C(c2cnc(N)c(-c3nc4ccccc4[nH]3)n2)CC1 [Compound I-250, ethyl 4-(5-amino-6-(1H-benzo[d]imidazol-2-yl)pyrazin-2-yl)-5,6-dihydropyridine-1(2H)-carboxylate]	100 to 1000 nM
CN(C)C(=O)N1CCN(c2cnc(N)c(-c3nnc(-c4ccccc4)o3)n2)CC1 [Compound I-218, 4-(5-amino-6-(5-phenyl-1,3,4-oxadiazol-2-yl)pyrazin-2-yl)-N,N-dimethylpiperazine-1-carboxamide]	100 to 1000 nM
Nc1ncc(N2CCN(S(=O)(=O)c3ccccc3)CC2)nc1-c1nnc(-c2ccccc2)o1 [Compound I-196, 3-(5-phenyl-1,3,4-oxadiazol-2-yl)-5-(4-(phenylsulfonyl)piperazin-1-yl)pyrazin-2-amine]	100 to 1000 nM
CCS(=O)(=O)N1CCN(c2cnc(N)c(C(=O)/C=C/c3ccccc3)n2)CC1 [Compound I-73, (E)-1-(3-amino-6-(4-(ethylsulfonyl)piperazin-1-yl)pyrazin-2-yl)-3-phenylprop-2-en-1-one]	1000 to 10000 nM
CCS(=O)(=O)N1CC2CN(c3cnc(N)c(-c4nc5ccccc5[nH]4)n3)CC2C1 (centres unmarked) [Compound I-295, 3-(1H-benzimidazol-2-yl)-5-(2-ethylsulfonyl-1,3,3a,4,6,6a-hexahydropyrrolo[3,4-c]pyrrol-5-yl)pyrazin-2-amine]	1000 to 10000 nM

Results, then the molecule that gave them:

Ki	SMILES
100 to 1000 nM	CCC(=O)N1CCN(c2cnc(N)c(-c3nnc(-c4ccc(CNC)cc4)o3)n2)[C@H](C)C1 [Compound I-359, (R)-1-(4-(5-Amino-6-(5-(4-((methylamino)methyl)phenyl)-1,3,4-oxadiazol-2-yl)pyrazin-2-yl)-3-methylpiperazin-1-yl)propan-1-one]
100 to 1000 nM	Nc1ncc(N2CC[C@H](NS(=O)(=O)c3ccccc3)C2)nc1-c1nc2ccccc2[nH]1 [Compound I-107, (S)-N-(1-(5-amino-6-(1H-benzo[d]imidazol-2-yl)pyrazin-2-yl)pyrrolidin-3-yl)benzenesulfonamide]
100 to 1000 nM	CCS(=O)(=O)N1CCN(c2cnc(N)c(-c3nnc(-c4ccccc4C)o3)n2)CC1 [Compound I-287, 5-(4-ethylsulfonylpiperazin-1-yl)-3-[5-(o-tolyl)-1,3,4-oxadiazol-2-yl]pyrazin-2-amine]
< 100 nM	CCS(=O)(=O)N1CC=C(c2cnc(N)c(-c3nc4cc(C)ccc4[nH]3)n2)CC1 [Compound I-157, 5-(1-(ethylsulfonyl)-1,2,3,6-tetrahydropyridin-4-yl)-3-(5-methyl-1H-benzo[d]imidazol-2-yl)pyrazin-2-amine]
< 100 nM	CN(C)S(=O)(=O)N1CC=C(c2cnc(N)c(-c3nnc(-c4ccccc4)o3)n2)CC1 [Compound I-84, 4-(5-amino-6-(5-phenyl-1,3,4-oxadiazol-2-yl)pyrazin-2-yl)-N,N-dimethyl-5,6-dihydropyridine-1(2H)-sulfonamide]
< 100 nM	Nc1ncc(C2=CCN(S(=O)(=O)c3ccccc3)CC2)nc1-c1nc2ccccc2[nH]1 [Compound I-210, 3-(1H-benzo[d]imidazol-2-yl)-5-(1-(phenylsulfonyl)-1,2,3,6-tetrahydropyridin-4-yl)pyrazin-2-amine]
100 to 1000 nM	COC(=O)N1CCN(c2cnc(N)c(-c3nnc(-c4ccccc4)o3)n2)CC1 [Compound I-225, methyl 4-(5-amino-6-(5-phenyl-1,3,4-oxadiazol-2-yl)pyrazin-2-yl)piperazine-1-carboxylate]
100 to 1000 nM	CC#CCOC(=O)N1CCN(c2cnc(N)c(-c3nnc(-c4ccccc4)o3)n2)CC1 [Compound I-246, but-2-ynyl 4-(5-amino-6-(5-phenyl-1,3,4-oxadiazol-2-yl)pyrazin-2-yl)piperazine-1-carboxylate]
< 100 nM	Nc1ncc(C2=CCN(C(=O)c3c(F)cccc3F)CC2)nc1-c1nc2ccccc2[nH]1 [Compound I-215, (4-(5-amino-6-(1H-benzo[d]imidazol-2-yl)pyrazin-2-yl)-5,6-dihydropyridin-1(2H)-yl)(2,6-difluorophenyl)methanone]
< 100 nM	Nc1ncc(C2=CCN(C(=O)C3CC3)CC2)nc1-c1nc2ccccc2[nH]1 [Compound I-284, [4-[5-amino-6-(1H-benzimidazol-2-yl)pyrazin-2-yl]-3,6-dihydro-2H-pyridin-1-yl]-cyclopropyl-methanone]
< 100 nM	Nc1ncc(C2=CCN(C(=O)C3CC3)CC2)nc1-c1nnc(-c2ccccc2)o1 [Compound I-285, [4-[5-amino-6-(5-phenyl-1,3,4-oxadiazol-2-yl)pyrazin-2-yl]-3,6-dihydro-2H-pyridin-1-yl]-cyclopropyl-methanone]
100 to 1000 nM	COCCOC(=O)N1CCN(c2cnc(N)c(-c3nnc(-c4ccccc4)o3)n2)CC1 [Compound I-221, 2-methoxyethyl 4-(5-amino-6-(5-phenyl-1,3,4-oxadiazol-2-yl)pyrazin-2-yl)piperazine-1-carboxylate]
100 to 1000 nM	CCS(=O)(=O)N1CCN(c2cnc(N)c(-c3nnc(-c4ccccc4F)o3)n2)CC1 [Compound I-299, 5-(4-ethylsulfonylpiperazin-1-yl)-3-[5-(2-fluorophenyl)-1,3,4-oxadiazol-2-yl]pyrazin-2-amine]
100 to 1000 nM	Cn1cnc(S(=O)(=O)N2CCN(c3cnc(N)c(-c4nnc(-c5ccccc5)o4)n3)CC2)c1 [Compound I-87, 5-(4-(1-methyl-1H-imidazol-4-ylsulfonyl)piperazin-1-yl)-3-(5-phenyl-1,3,4-oxadiazol-2-yl)pyrazin-2-amine]
< 100 nM	CCOC(=O)N1CC=C(c2cnc(N)c(-c3nnc(-c4ccccc4)o3)n2)CC1 [Compound I-238, ethyl 4-(5-amino-6-(5-phenyl-1,3,4-oxadiazol-2-yl)pyrazin-2-yl)-5,6-dihydropyridine-1(2H)-carboxylate]
100 to 1000 nM	Nc1ncc(N2CCN(S(=O)(=O)C3CC3)CC2)nc1C(=O)Nc1ccccn1 [Compound I-118, 3-amino-6-(4-(cyclopropylsulfonyl)piperazin-1-yl)-N-(pyridin-2-yl)pyrazine-2-carboxamide]
< 100 nM	Nc1ncc(C2=CCN(C(=O)c3cccnc3)CC2)nc1-c1nnc(-c2ccccc2)o1 [Compound I-129, (4-(5-amino-6-(5-phenyl-1,3,4-oxadiazol-2-yl)pyrazin-2-yl)-5,6-dihydropyridin-1(2H)-yl)(pyridin-3-yl)methanone]
< 100 nM	CC(C)C(=O)N1CC=C(c2cnc(N)c(-c3nc4cccnc4[nH]3)n2)CC1 [Compound I-67, 1-(4-(5-amino-6-(3H-imidazo[4,5-b]pyridin-2-yl)pyrazin-2-yl)-5,6-dihydropyridin-1(2H)-yl)-2-methylpropan-1-one]
